Measurements reported in patent publication US20190315823A1, “SMALL CATIONIC ANTI-BIOFILM AND IDR PEPTIDES” (priority 2013, published 2019).
Ends that are not written are not given here.

The substances below were run on methicillin resistant Staphylococcus aureus (MRSA) biofilm (assay: not given). Conditions: approximate peptide concentration […] (around 3 μg/ml); compared to untreated samples.
Summary of the method: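 Static biofilm assay: 1/100 dilutions of overnight cultures grown in BM2 medium (pH 7, glucose, Casamino Acids) or Luria Broth with peptide added at time zero. After 22–46 h, adherent biofilm was stained with crystal violet and read at 595 nm. Some peptides were also tested on K. pneumoniae under flow in a Bioflux system.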

| Substance | % Biofilm inhibition |
| --- | --- |
| 1018-W6: single substituted 1018 peptide (VRLIVWVRIWRR-NH2) [Peptide 1018-W6] | 75% |
| 1018-A10: single substituted 1018 peptide (VRLIVAVRIARR-NH2) [Peptide 1018-A10] | 54% |
| HH2-W2: single substituted HH2 peptide (VWLRIRVAVIRA-NH2) | 70% |
| 1018-V6: single substituted 1018 peptide (VRLIVVVRIWRR-NH2) [Peptide 1018-V6] | 70% |
| 1002-G3: single substituted 1002 peptide (VQGWLIVWRIRK-NH2) [Peptide 1002-G3] | 56% |
| 1018-I5: single substituted 1018 peptide (VRLIIAVRIWRR-NH2) [Peptide 1018-I5] | 60% |
| HH2-A3: single substituted HH2 peptide (VQARIRVAVIRA-NH2) | 52% |
| 1002-G6: single substituted 1002 peptide (VQRWLGVWRIRK-NH2) [Peptide 1002-G6] | 26% |
| 1018-G7: single substituted 1018 peptide (VRLIVAGRIWRR-NH2) [Peptide 1018-G7] | 47% |
| 1018-K8: single substituted 1018 peptide (VRLIVAVKIWRR-NH2) [Peptide 1018-K8] | 65% |
| 1002-V2: single substituted 1002 peptide (VVRWLIVWRIRK-NH2) [Peptide 1002-V2] | 72% |
| HH2-K1: single substituted HH2 peptide (KQLRIRVAVIRA-NH2) | 55% |
| HH2-G9: single substituted HH2 peptide (VQLRIRVAGIRA-NH2) | 59% |
| HH2-Q10: single substituted HH2 peptide (VQLRIRVAVQRA-NH2) | 61% |
| 1018-G12: single substituted 1018 peptide (VRLIVAVRIWRG-NH2) [Peptide 1018-G12] | 53% |

What follows are substances tested on LPS-stimulated human peripheral blood mononuclear cells (IL1-β) (assay: not given). Conditions: Table 12; cells stimulated with 10 ng/ml LPS.
Type: cell-based

| Substance | Fold change in IL1β relative to no peptide LPS stimulated cells |
| --- | --- |
| 1018-W6: single substituted 1018 peptide (VRLIVWVRIWRR-NH2) [Peptide 1018-W6] | 0.24 |
| 1018-A10: single substituted 1018 peptide (VRLIVAVRIARR-NH2) [Peptide 1018-A10] | 0.28 |
| HH2-W2: single substituted HH2 peptide (VWLRIRVAVIRA-NH2) | 0.98 |
| 1018-V6: single substituted 1018 peptide (VRLIVVVRIWRR-NH2) [Peptide 1018-V6] | 0.17 |
| 1002-G3: single substituted 1002 peptide (VQGWLIVWRIRK-NH2) [Peptide 1002-G3] | 0.05 |
| 1018-I5: single substituted 1018 peptide (VRLIIAVRIWRR-NH2) [Peptide 1018-I5] | 0.10 |
| HH2-A3: single substituted HH2 peptide (VQARIRVAVIRA-NH2) | 1.44 |
| 1002-G6: single substituted 1002 peptide (VQRWLGVWRIRK-NH2) [Peptide 1002-G6] | 0.45 |
| 1018-G7: single substituted 1018 peptide (VRLIVAGRIWRR-NH2) [Peptide 1018-G7] | 1.23 |
| 1018-K8: single substituted 1018 peptide (VRLIVAVKIWRR-NH2) [Peptide 1018-K8] | 0.18 |
| 1002-V2: single substituted 1002 peptide (VVRWLIVWRIRK-NH2) [Peptide 1002-V2] | 0.05 |
| HH2-K1: single substituted HH2 peptide (KQLRIRVAVIRA-NH2) | 1.08 |
| HH2-G9: single substituted HH2 peptide (VQLRIRVAGIRA-NH2) | 1.04 |
| HH2-Q10: single substituted HH2 peptide (VQLRIRVAVQRA-NH2) | 0.90 |
| 1018-G12: single substituted 1018 peptide (VRLIVAVRIWRG-NH2) [Peptide 1018-G12] | 0.37 |

Same assay, conditions: Table 12; cells stimulated with 10 ng/ml LPS; LPS alone 1313 (HH2 derivatives), 1927 (1018 derivatives), 2455 (1002 and hybrid peptides) pg/ml

| Substance | IL1β Production |
| --- | --- |
| 1018-W6: single substituted 1018 peptide (VRLIVWVRIWRR-NH2) [Peptide 1018-W6] | 310 pg/mL |
| 1018-A10: single substituted 1018 peptide (VRLIVAVRIARR-NH2) [Peptide 1018-A10] | 369 pg/mL |
| HH2-W2: single substituted HH2 peptide (VWLRIRVAVIRA-NH2) | 1293 pg/mL |
| 1018-V6: single substituted 1018 peptide (VRLIVVVRIWRR-NH2) [Peptide 1018-V6] | 226 pg/mL |
| 1002-G3: single substituted 1002 peptide (VQGWLIVWRIRK-NH2) [Peptide 1002-G3] | 127 pg/mL |
| 1018-I5: single substituted 1018 peptide (VRLIIAVRIWRR-NH2) [Peptide 1018-I5] | 127 pg/mL |
| HH2-A3: single substituted HH2 peptide (VQARIRVAVIRA-NH2) | 1886 pg/mL |
| 1002-G6: single substituted 1002 peptide (VQRWLGVWRIRK-NH2) [Peptide 1002-G6] | 1098 pg/mL |
| 1018-G7: single substituted 1018 peptide (VRLIVAGRIWRR-NH2) [Peptide 1018-G7] | 1610 pg/mL |
| 1018-K8: single substituted 1018 peptide (VRLIVAVKIWRR-NH2) [Peptide 1018-K8] | 242 pg/mL |
| 1002-V2: single substituted 1002 peptide (VVRWLIVWRIRK-NH2) [Peptide 1002-V2] | 127 pg/mL |
| HH2-K1: single substituted HH2 peptide (KQLRIRVAVIRA-NH2) | 1423 pg/mL |
| HH2-G9: single substituted HH2 peptide (VQLRIRVAGIRA-NH2) | 1363 pg/mL |
| HH2-Q10: single substituted HH2 peptide (VQLRIRVAVQRA-NH2) | 1180 pg/mL |
| 1018-G12: single substituted 1018 peptide (VRLIVAVRIWRG-NH2) [Peptide 1018-G12] | 490 pg/mL |

The substances below were run on human peripheral blood mononuclear cells (MCP-1) (assay: SPOT-synthesized derivative screen: production of chemokine MCP-1). Conditions: Table 12; No LPS; human PBMC, peptide at ~18-24 μM.
Type: cell-based
Summary of the method: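 PBMC from heparinized healthy-donor venous blood, Ficoll-separated, cultured at 0.75 to 1×10^6 cells/ml, 37 °C, 5% CO2, under the treatment regimens. MCP-1 in cell-free supernatants measured by capture ELISA.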

| Substance | Fold increase in MCP1 cf. untreated cells |
| --- | --- |
| 1018-W6: single substituted 1018 peptide (VRLIVWVRIWRR-NH2) [Peptide 1018-W6] | 0.7 |
| 1018-A10: single substituted 1018 peptide (VRLIVAVRIARR-NH2) [Peptide 1018-A10] | 1.0 |
| HH2-W2: single substituted HH2 peptide (VWLRIRVAVIRA-NH2) | 12 |
| 1018-V6: single substituted 1018 peptide (VRLIVVVRIWRR-NH2) [Peptide 1018-V6] | 1.6 |
| 1002-G3: single substituted 1002 peptide (VQGWLIVWRIRK-NH2) [Peptide 1002-G3] | 14.0 |
| 1018-I5: single substituted 1018 peptide (VRLIIAVRIWRR-NH2) [Peptide 1018-I5] | 13 |
| HH2-A3: single substituted HH2 peptide (VQARIRVAVIRA-NH2) | 1.3 |
| 1002-G6: single substituted 1002 peptide (VQRWLGVWRIRK-NH2) [Peptide 1002-G6] | 0.9 |
| 1018-G7: single substituted 1018 peptide (VRLIVAGRIWRR-NH2) [Peptide 1018-G7] | 25 |
| 1018-K8: single substituted 1018 peptide (VRLIVAVKIWRR-NH2) [Peptide 1018-K8] | 8.3 |
| 1002-V2: single substituted 1002 peptide (VVRWLIVWRIRK-NH2) [Peptide 1002-V2] | 22.5 |
| HH2-K1: single substituted HH2 peptide (KQLRIRVAVIRA-NH2) | 6.7 |
| HH2-G9: single substituted HH2 peptide (VQLRIRVAGIRA-NH2) | 3.0 |
| HH2-Q10: single substituted HH2 peptide (VQLRIRVAVQRA-NH2) | 31 |
| 1018-G12: single substituted 1018 peptide (VRLIVAVRIWRG-NH2) [Peptide 1018-G12] | 1.0 |

Same assay, conditions: Table 12; No LPS; human PBMC, peptide at ~18-24 μM; background subtracted 139 (HH2 derivatives), 170 (1018 derivatives), 242 (1002 and hybrid peptides) pg/ml

| Substance | MCP1 |
| --- | --- |
| 1018-W6: single substituted 1018 peptide (VRLIVWVRIWRR-NH2) [Peptide 1018-W6] | -54 pg/mL |
| 1018-A10: single substituted 1018 peptide (VRLIVAVRIARR-NH2) [Peptide 1018-A10] | 7 pg/mL |
| HH2-W2: single substituted HH2 peptide (VWLRIRVAVIRA-NH2) | 1802 pg/mL |
| 1018-V6: single substituted 1018 peptide (VRLIVVVRIWRR-NH2) [Peptide 1018-V6] | 110 pg/mL |
| 1002-G3: single substituted 1002 peptide (VQGWLIVWRIRK-NH2) [Peptide 1002-G3] | 3157.8 pg/mL |
| 1018-I5: single substituted 1018 peptide (VRLIIAVRIWRR-NH2) [Peptide 1018-I5] | 2103 pg/mL |
| HH2-A3: single substituted HH2 peptide (VQARIRVAVIRA-NH2) | 59 pg/mL |
| 1002-G6: single substituted 1002 peptide (VQRWLGVWRIRK-NH2) [Peptide 1002-G6] | -36.2 pg/mL |
| 1018-G7: single substituted 1018 peptide (VRLIVAGRIWRR-NH2) [Peptide 1018-G7] | 4098 pg/mL |
| 1018-K8: single substituted 1018 peptide (VRLIVAVKIWRR-NH2) [Peptide 1018-K8] | 1237 pg/mL |
| 1002-V2: single substituted 1002 peptide (VVRWLIVWRIRK-NH2) [Peptide 1002-V2] | 5209.2 pg/mL |
| HH2-K1: single substituted HH2 peptide (KQLRIRVAVIRA-NH2) | 968 pg/mL |
| HH2-G9: single substituted HH2 peptide (VQLRIRVAGIRA-NH2) | 342 pg/mL |
| HH2-Q10: single substituted HH2 peptide (VQLRIRVAVQRA-NH2) | 5057 pg/mL |
| 1018-G12: single substituted 1018 peptide (VRLIVAVRIWRG-NH2) [Peptide 1018-G12] | 7 pg/mL |
